Series [1] can be described thus: Water-octanol partition coefficient (log P), shake-flask method with GF-AAS. It counts as physicochemical. Particulars: room temperature, 50 μM. Here is the method: Those of ordinary skill in the art would be knowledgeable of methods of determining the water-octanol partition coefficient of compounds. For example, the log P of a compound may be obtained using the shake-flask method and graphite furnace atomic absorption spectroscopy (GF-AAS). Briefly, in the shake-flask method, octanol is pre-saturated with water by overnight incubation with shaking of a biphasic mixture of the two at room temperature. A portion of 0.5 mL water containing 50 μM of the given compound is incubated with the pre-saturated octanol (0.5 mL) in a 1.5 mL tube. The tube is shaken at room temperature for 3 hours. The two phases are separated by centrifugation and the osmium content (concentration) in each phase is determined by GFAAS. The log P is then calculated using the formula below: log P=log 10[(concentration of osmium in the octanol layer)/(concentration of osmium in the water layer)].
The log P values were obtained using the shake-flask method and graphite furnace atomic absorption spectroscopy (GF-AAS). Octanol used in this experiment was pre-saturated with water by overnight incubation with shaking of a biphasic mixture of the two at room temperature. A portion of 0.5 mL water containing 50 μM of the given compound was incubated with the pre-saturated octanol (0.5 mL) in a 1.5 mL tube. The tube was shaken at room temperature for 3 h. The two phases were separated by centrifugation and the osmium content (concentration) in each phase was determined by GFAAS. All the experiments were carried out in triplicate. The log P was then calculated using the formula below: Log P=log 10[(conc. of osmium in the octanol layer)/(conc. of osmium in the water layer)].

In series [2] the test system is Eμ-Mycp19arf−/− lymphoma cells. The experiment in a line: RNAi signatures, GFP competition assay. Particulars: for shChk2 log 2(RI) value / shp53 log 2(RI) value: LD80-90 concentration; for RNAi signature classification against reference set: probabilistic K-nearest neighbors.
Excerpt: This RNAi-based methodology relied on a fluorescence competition assay involving lymphoma cells that were partially infected with one of eight distinct short hairpin RNAs (shRNAs). shRNA-bearing cells will either enrich or deplete relative to the uninfected population based on drug survival advantage or disadvantage conferred by a given shRNA. […] The signature of a novel compound was compared to those of a reference set of drugs using a probabilistic K-nearest neighbors algorithm to determine whether it belonged to a class in the reference set or a new category that was not represented in the reference set.
Compounds were dosed to achieve an LD80-90 in Eμ-Myc^p19arf−/− cells by propidium iodide exclusion as determined by FACS after a 48 h incubation. GFP enrichment/depletion was then determined by FACS at 72 h. […] All FACS was conducted using a FACScan (BD Biosciences).
Eμ-Myc^p19arf−/− lymphoma or p185+ BCR-Abl^p19arf−/− leukemia cells were infected with GFP-tagged shRNAs such that 15-25% of the population were GFP positive. An eighth of a million cells in 250 μL B-cell media (BCM) were then seeded into 24-well plates. For wells that would remain untreated as a control, only 1/16th of a million cells were seeded. Next, 250 μL of media containing the active agent was added to the cells. After 24 h, 300 μL of cells from untreated wells are removed and replaced by 300 μL fresh BCM. All wells then received 500 μL BCM before being placed by in the incubator for another 24 h. At 48 h, cells transduced with the control vector, MLS, were checked for viability via FACS on a FACScan (BD Biosciences) using propidium iodide as a live/dead marker. Untreated wells then had 700 μL of cells removed and replaced with 700 μL fresh media followed by a further 1 mL of fresh media. […] Finally, at 72 h, all wells for which an LD80-90 was achieved, as well as the untreated samples, were analyzed via FACS to determine GFP % enrichment.
Series [3] concerns pUC19 plasmid DNA. The series is described as follows: Agarose gel electrophoresis of plasmid DNA. In kind it is biochemical. Particulars: 24 h, 37° C. Here is the method: The osmium compounds were hypothesized to induce cell death through DNA interactions. Therefore, the interaction of 2 or 4 with pUC19 plasmid DNA was investigated using gel electrophoresis; the results of which are as shown in FIG. 6. As the concentration of 2 increased, there was a clear increase in the amount of nicked circular, and a concomitant decrease in the amount of supercoiled, plasmid DNA. At concentrations >250 μM, the bands in the gel smeared and then disappeared. […] The DNA binding kinetics of 2 and 4 were studied by measuring the amount of osmium bound to precipitated ct-DNA; the results of which are as shown in FIG. 7. The half-life of this reaction for 2 was 2 hours.
Plasmid DNA (pUC19) was kindly donated. The DNA binding ability of the osmium complexes was determined by monitoring the conversion of supercoiled plasmid DNA (form I) to nicked circular DNA (form II) using agarose gel electrophoresis. To probe the effect of Os-complex concentration, solutions containing […] of DNA and 0, 10, 20, 50, 100, 250, 500, and 1000 μM of the osmium complexes with a total reaction volume of 15 μL were incubated at 37° C. for 24 h. […] The DNA bands were analysed under UV light using a Flor-S reader (BioRad).

Series [4] concerns A2780 cells. The experiment in a line: Dual Annexin V staining/PI flow cytometry assay. As to conditions: 72 hours. In kind it is cell-based, human. As for the experimental part: To have a more complete understanding of the cellular response induced by 2 or 4, their mode of cell killing was evaluated. Many clinically approved cancer drugs exert their cytotoxic effects through apoptosis, and so the features related to this pathway were monitored. Apoptotic cells underwent morphological changes that lead to cell membrane disorientation. […] Cells can undergo other forms of cell death such as necrosis and autophagy. To probe these pathways, cytotoxicity assays were carried out in the presence of […], chloroquine, and IM-54, respectively. Because both chloroquine and IM-54 had little effect on the potency of either of the osmium complexes, necrosis and autophagy were ruled out as possible death pathways. […] On the other hand, 4 initiated ER stress, culminating in p53 independent, caspase directed apoptosis (FIG. 4).
In order to monitor the cell cycle, flow cytometry studies were carried out. […] DNA content was measured on a FACSCalibur-HTS flow cytometer (BD Biosciences) using laser excitation at 488 nm and 20,000 events per sample were acquired. Cell cycle profiles were analysed using the ModFit software. […] The samples were kept on ice prior to being read on the FACSCalibur-HTS flow cytometer (BD Biosciences) and 20,000 events per sample were acquired. Cell populations were analysed using the FlowJo software (Tree Star).
Background: In flow cytometry, cells or beads pass a laser one at a time.

The text below walks through data of US10662210B2, “Compositions and methods comprising osmium for the treatment of cancers” (Massachusetts Institute of Technology, priority 2014, dated 2020).

Molecules are shown by their SMILES.

As for `[N]#[Os]1([Cl])([Cl])([Cl])[N]2C=CC(c3ccccc3)=c3ccc4c(c32)[N]1C=CC=4c1ccccc1` [Complex 4, OsN(4,7-diphenyl-1,10-phenanthroline)Cl3], the “log P (water-octanol coefficient)” value in series [1] was 1.84. In addition, in series [2], the “shChk2 log 2(RI) value” is recorded as 0.73, the “shp53 log 2(RI) value” came to 1.32 and the “RNAi signature classification against reference set” value is “represented novel mechanisms of drug action”. For the same molecule, the “effect on pUC19 DNA in gel electrophoresis” value in series [3] is on record as “no visible effect”. The “occurrence of apoptosis (Annexin V/PI)” value in series [4] was “induced large populations of cells to undergo early and late stage apoptosis”.
`[N]#[Os]1([Cl])([Cl])([Cl])[N]2C=CC=c3ccc4c(c32)[N]1C=CC=4` [Complex 2, OsN(1,10-phenanthroline)Cl3]: in series [1], the “log P (water-octanol coefficient)” value is recorded as 1.26. Also, in series [2], the “shChk2 log 2(RI) value” is recorded as 2.6, the “shp53 log 2(RI) value” came out at 2.7 and the “RNAi signature classification against reference set” value is “represented novel mechanisms of drug action”. In addition, the “effect on pUC19 DNA in gel electrophoresis” value in series [3] is “induced conformational changes and degradation of circular DNA”. Besides, the “occurrence of apoptosis (Annexin V/PI)” value in series [4] was “induced large populations of cells to undergo early and late stage apoptosis”.
